Experimental data taken from patent US20190225650A1, “PEPTIDOMIMETIC MACROCYCLES AND USE THEREOF IN REGULATING HIF1ALPHA” (AILERON THERAPEUTICS, INC., priority 2013, published 2019).
Bridge positions count the residues as written; N and C are the ends. Square brackets hold non-standard residues; d marks the D form. Peptide text beside a SMILES is read from it. R8 = C=CCCCCCC[C@@](C)(N)C(=O)O; S5 = C=CCCC[C@](C)(N)C(=O)O; Nle = CCCC[C@H](N)C(=O)O

Experiments:
[1] = system: HRE-bla ME-180 cells; assay: Cell proliferation assay (viability, MTT, 1% FBS); assay type: cell-based, human
Method in brief: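 Viable cell number was measured with the CellTiter 96 (MTT) kit after compounds were applied for a 16 h normoxic (21% O2) pretreatment, followed by further normoxic or hypoxic (1% O2) culture. Cells: 2×10^4 ME-180 per well, Opti-MEM + 1% FBS, 0.5% DMSO vehicle.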

[2] = biological target: T1, flag-tagged HIF1α (AA 786-826) / His6-tagged p300 (AA 323-423) complex (Homo sapiens, UniProt Q09472); assay: HIF1α p300 displacement assay (TR FRET, +CHAPS); assay type: binding; settings: read-out: IC50 (nM) (HIF1α_p300 Displacement + CHAPS)
T1 construct: His6-tagged p300 (AA 323-423); made in house; host or cells: E. coli (pETDuet vector)
Method in brief: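 In this TR-FRET displacement format, peptides compete HIF1α C-terminal transactivation domain off p300-CH. They were preincubated 1 h at room temperature with 300 nM complex in HEPES pH 7.4/NaCl buffer with 7.5 mM CHAPS and 1 mM DTT. Anti-His-D2 (4 nM) and anti-Flag-K (0.5 μM) followed for 2 h, and a one-site fit of the fluorescence ratio gave IC50.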

[3] = system: HRE-bla ME-180 cells; assay: Reporter gene assay (HRE-bla ME-180 HIF reporter, GeneBLAzer); assay type: cell-based, human; settings: for EC50: 24 hour normoxia
Method in brief: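 A FRET β-lactamase readout of HIF transcription was used. After compound treatment in 0.3% DMSO/media under normoxic conditions, 20 μl of 6× LiveBLAzer-FRET B/G (CCF4-AM) substrate was added. Plates sat 3 hr at room temperature in the dark and were read at 409 Ex/460Em and 409Ex/530Em on a Synergy 2. Inhibition was compared against DMSO vehicle controls, with chetomin as positive control.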

| SMILES | IC50 [2] [nM] | EC50 [3] [µM] | Viability 1% FBS AVG (MTT V3-24 hr Normoxia) (μM) [1] | 18 h Avg % max inhibition at top conc (HIF Rptr-24 hrs normoxia) (μM) [3] |
| --- | --- | --- | --- | --- |
| CCCC[C@H](NC(=O)[C@]1(C)CCCC=CCCC[C@](C)(NC(=O)[C@H](CCSC)NC(=O)[C@H](CC(C)C)NC(=O)[C@@H](NC(=O)[C@H](CCC(=O)O)NC(=O)[C@H](CCC(=O)O)NC(=O)[C@H](CC(=O)O)NC(=O)[C@@H](NC(=O)[C@H](Cc2ccccc2)NC(C)=O)[C@@H](C)CC)C(C)C)C(=O)N[C@@H](CC(C)C)C(=O)N[C@@H](C(C)C)C(=O)N[C@@H]([C@@H](C)CC)C(=O)N1)C(=O)N[C@@H](C)C(=O)N[C@@H](CC(C)C)C(N)=O [SP-225] (Ac-FIDEEVLM[S5]LVI[S5][Nle]AL-NH2; staple 9-13) | > 700 | > 30 | ++++ (≥30: ++++) | +++ (≤25 but <50: +++) |
| CC[C@H](C)[C@H](NC(=O)[C@H](Cc1ccccc1)NC(C)=O)C(=O)N[C@@H](CC(=O)O)C(=O)N[C@@H](CCC(=O)O)C(=O)N[C@]1(C)CCCCCCC=CCCC[C@@](C)(C(=O)N[C@@H](CCC(=O)O)C(=O)N[C@@H](CCSC)C(=O)N[C@@H](C)C(=O)N[C@@H](CC(C)C)C(=O)N[C@@H](CC(=O)O)C(N)=O)NC(=O)[C@H](C(C)C)NC(=O)[C@H](CC(C)C)NC(=O)[C@H](CO)NC(=O)[C@H](CCSC)NC(=O)[C@H](CC(C)C)NC(=O)[C@H](C(C)C)NC1=O [SP-176] (Ac-FIDE[R8]VLMSLV[S5]EMALD-NH2; staple 5-12) | > 700 | > 30 | ++++ (≥30: ++++) | ++++ (≥50: ++++) |
| CCCC[C@H](NC(=O)[C@H](CCC(=O)O)NC(=O)[C@]1(C)CCCC=CCCCCCC[C@@](C)(NC(=O)[C@H](CCC(=O)O)NC(=O)[C@H](CC(=O)O)NC(=O)[C@@H](NC(=O)[C@H](Cc2ccccc2)NC(C)=O)[C@@H](C)CC)C(=O)N[C@@H](C(C)C)C(=O)N[C@@H](CC(C)C)C(=O)N[C@@H](CCCC)C(=O)N[C@@H](CO)C(=O)N[C@@H](CC(C)C)C(=O)N[C@@H](C(C)C)C(=O)N1)C(=O)N[C@@H](C)C(=O)N[C@@H](CC(C)C)C(N)=O [SP-195] (Ac-FIDE[R8]VL[Nle]SLV[S5]E[Nle]AL-NH2; staple 5-12) | 400 to 700 | ≤ 5 | ++ (≤5 but <15: ++) | ++++ (≥50: ++++) |
| CCCC[C@H](NC(=O)[C@H](CCC(=O)O)NC(=O)[C@]1(C)CCCC=CCCCCCC[C@@](C)(NC(=O)[C@H](CCC(=O)O)NC(=O)[C@H](CC(=O)O)NC(=O)[C@@H](NC(=O)[C@H](CC(N)=O)NC(=O)[C@@H](NC(=O)[C@H](CCC(N)=O)NC(=O)[C@H](CC(=O)O)NC(=O)[C@H](CC(C)C)NC(=O)[C@]2(C)CCCC=CCCC[C@](C)(NC(=O)[C@H](CCC(=O)O)NC(=O)CNC(=O)[C@H](CCC(N)=O)NC(=O)[C@H](CC(C)C)NC(=O)[C@H](CC(C)C)NC(C)=O)C(=O)N[C@@H](CC(C)C)C(=O)N[C@@H](CC(C)C)C(=O)N[C@@H](CCCNC(=N)N)C(=O)N2)C(C)C)[C@@H](C)CC)C(=O)N[C@@H](C(C)C)C(=O)N[C@@H](CC(C)C)C(=O)N[C@@H](CCCC)C(=O)N[C@@H](CO)C(=O)N[C@@H](CC(C)C)C(=O)N[C@@H](C(C)C)C(=O)N1)C(=O)NCC(N)=O [SP-311] (Ac-LLQGE[S5]LLR[S5]LDQVNIDE[R8]VL[Nle]SLV[S5]E[Nle]G-NH2; staple 6-10, 19-26) | > 700 | > 30 | ++++ (≥30: ++++) | ++ (≤10 but <25: ++) |
| CCCC[C@H](NC(=O)[C@]1(C)CCCC=CCCC[C@](C)(NC(=O)[C@H](CCCC)NC(=O)[C@H](CC(C)C)NC(=O)[C@@H](NC(=O)[C@H](C)NC(=O)[C@H](CCC(=O)O)NC(=O)[C@H](CC(=O)O)NC(=O)[C@@H](NC(=O)[C@H](CC(N)=O)NC(=O)[C@@H](NC(=O)[C@]2(C)CCCC=CCCCCCC[C@@](C)(NC(=O)[C@H](CCC(=O)O)NC(=O)CNC(=O)[C@H](CCC(N)=O)NC(=O)[C@H](CC(C)C)NC(=O)[C@H](CC(C)C)NC(C)=O)C(=O)N[C@@H](CC(C)C)C(=O)N[C@@H](CC(C)C)C(=O)N[C@@H](CCCNC(=N)N)C(=O)N[C@@H](C)C(=O)N[C@@H](CC(C)C)C(=O)N[C@@H](CC(=O)O)C(=O)N2)C(C)C)[C@@H](C)CC)C(C)C)C(=O)N[C@@H](CC(C)C)C(=O)N[C@@H](C(C)C)C(=O)N[C@@H]([C@@H](C)CC)C(=O)N1)C(N)=O [SP-347] (Ac-LLQGE[R8]LLRALD[S5]VNIDEAVL[Nle][S5]LVI[S5][Nle]-NH2; staple 6-13, 23-27) | 400 to 700 | > 30 | ++++ (≥30: ++++) | +++ (≤25 but <50: +++) |

Second part, led by results:

| IC50 [2] [nM] | EC50 [3] [µM] | SMILES | Viability 1% FBS AVG (MTT V3-24 hr Normoxia) (μM) [1] | 18 h Avg % max inhibition at top conc (HIF Rptr-24 hrs normoxia) (μM) [3] |
| --- | --- | --- | --- | --- |
| 400 to 700 | > 30 | CCCC[C@H](NC(=O)[C@H](CCC(=O)O)NC(=O)[C@]1(C)CCCC=CCCCCCC[C@@](C)(NC(=O)[C@H](CCC(=O)O)NC(=O)[C@H](CC(=O)O)NC(=O)[C@@H](NC(=O)[C@H](CC(N)=O)NC(=O)[C@@H](NC(=O)[C@H](CCC(N)=O)NC(=O)[C@H](CC(=O)O)NC(=O)[C@H](CC(C)C)NC(=O)[C@H](C)NC(=O)[C@H](CCCNC(=N)N)NC(=O)[C@]2(C)CCCC=CCCC[C@](C)(NC(=O)[C@H](CCC(N)=O)NC(=O)[C@H](CC(C)C)NC(=O)[C@H](CC(C)C)NC(C)=O)C(=O)N[C@@H](CCC(=O)O)C(=O)N[C@@H](CCC(=O)O)C(=O)N[C@@H](CC(C)C)C(=O)N2)C(C)C)[C@@H](C)CC)C(=O)N[C@@H](C(C)C)C(=O)N[C@@H](CC(C)C)C(=O)N[C@@H](CCCC)C(=O)N[C@@H](CO)C(=O)N[C@@H](CC(C)C)C(=O)N[C@@H](C(C)C)C(=O)N1)C(=O)NCC(N)=O [SP-310] (Ac-LLQ[S5]EEL[S5]RALDQVNIDE[R8]VL[Nle]SLV[S5]E[Nle]G-NH2; staple 4-8, 19-26) | ++++ (≥30: ++++) | + (<10: +) |
| 400 to 700 | 5 to 15 | CC[C@H](C)[C@H](NC(=O)[C@H](CCCNC(=N)N)NC(=O)[C@H](CC(=O)O)NC(=O)[C@H](CC(C)C)NC(=O)[C@H](C)NC(=O)[C@H](CCSC)NC(=O)[C@H](CCC(=O)O)NC(=O)[C@@H](NC(=O)[C@@H](NC(=O)[C@H](CC(C)C)NC(=O)[C@]1(C)CCCC=CCCC[C@](C)(NC(=O)[C@H](CCC(=O)O)NC(=O)[C@H](CC(=O)O)NC(=O)[C@@H](NC(=O)[C@H](Cc2ccccc2)NC(C)=O)[C@@H](C)CC)C(=O)N[C@@H](C(C)C)C(=O)N[C@@H](CC(C)C)C(=O)N[C@@H](CCSC)C(=O)N1)C(C)C)[C@@H](C)CC)C(=O)N[C@@H](CCCCN)C(=O)N[C@@H](CCC(=O)O)C(N)=O [SP-113] (Ac-FIDE[S5]VLM[S5]LVIEMALDRIKE-NH2; staple 5-9) | ++++ (≥30: ++++) | ++++ (≥50: ++++) |
| 400 to 700 | 15 to 30 | CC[C@H](C)[C@H](NC(=O)[C@H](CCCNC(=N)N)NC(=O)[C@H](CC(=O)O)NC(=O)[C@H](CC(C)C)NC(=O)[C@H](C)NC(=O)[C@H](CCSC)NC(=O)[C@]1(C)CCCC=CCCC[C@](C)(NC(=O)[C@H](CCSC)NC(=O)[C@H](Cc2ccccc2)NC(=O)[C@@H](NC(=O)[C@H](CCC(=O)O)NC(=O)[C@H](CCC(=O)O)NC(=O)[C@H](CC(=O)O)NC(=O)[C@@H](NC(=O)[C@H](Cc2ccccc2)NC(C)=O)[C@@H](C)CC)C(C)C)C(=O)N[C@@H](CC(C)C)C(=O)N[C@@H](C(C)C)C(=O)N[C@@H]([C@@H](C)CC)C(=O)N1)C(N)=O [SP-264] (Ac-FIDEEVFM[S5]LVI[S5]MALDRI-NH2; staple 9-13) | ++++ (≥30: ++++) | ++ (≤10 but <25: ++) |
| 200 to 400 | > 30 | CCCC[C@H](NC(=O)[C@H](CCC(=O)O)NC(=O)[C@]1(C)CCCC=CCCCCCC[C@@](C)(NC(=O)[C@H](CCC(=O)O)NC(=O)[C@H](C)NC(=O)[C@H](C)NC(=O)[C@H](C)NC(=O)[C@H](C)NC(=O)[C@H](CCC(N)=O)NC(=O)[C@]2(C)CCCC=CCCC[C@](C)(NC(=O)[C@H](CC(C)C)NC(=O)[C@H](CCC(=O)O)NC(=O)[C@H](CCC(=O)O)NC(=O)CNC(=O)[C@H](CCC(N)=O)NC(=O)[C@H](CC(C)C)NC(=O)[C@H](CC(C)C)NC(C)=O)C(=O)N[C@@H](CCCNC(=N)N)C(=O)N[C@@H](C)C(=O)N[C@@H](CC(C)C)C(=O)N2)C(=O)N[C@@H](C(C)C)C(=O)N[C@@H](CC(C)C)C(=O)N[C@@H](CCCC)C(=O)N[C@@H](CO)C(=O)N[C@@H](CC(C)C)C(=O)N[C@@H](C(C)C)C(=O)N1)C(N)=O [SP-359] (Ac-LLQGEEL[S5]RAL[S5]QAAAAE[R8]VL[Nle]SLV[S5]E[Nle]-NH2; staple 8-12, 19-26) | ++++ (≥30: ++++) | +++ (≤25 but <50: +++) |
